Laboratory results as given in US9237988B2, “Benzalkonium chloride compositions for inhibiting the hydrolytic activity of endogenous matrix metalloproteinases in dental restorations” (Bisco, Inc., priority 2010, dated 2016).

Target: MMP-9 enzymes (Homo sapiens, UniProt P14780)
Assay: MMP inhibition after incubation with MMP-9 enzymes, Anaspec SensoLyte Generic MMP Assay Kit
Type: biochemical
Conditions: for Percent MMP Inhibition at 1 Hour / Percent MMP Inhibition at 4 Hours: aqueous solution; for Percent MMP Inhibition at 1 Hour: 1 hour incubation; for Percent MMP Inhibition at 4 Hours: 4 hours incubation
Description: According to another presently expected one exemplary embodiment of the present application, multiple benzalkonium chloride dental solutions were prepared in aqueous solutions in concentrations varying from 0.02% to 2%, and were incubated with MMP-9 enzymes for 4 hours. After both 1 and 4 hours of incubation, standard negative and positive controls were compared to the below concentrations of the test compositions using an Anaspec SensoLyte Generic MMP Assay Kit (#72095, Anaspec, Fremont, Calif., USA), with the resulting MMP inhibitions shown in Tables 1 and 2 below.

[1] = 0.5% BAC by weight, listed as benzalkonium chloride

Chain of MMP-9 enzymes (P14780 94-707): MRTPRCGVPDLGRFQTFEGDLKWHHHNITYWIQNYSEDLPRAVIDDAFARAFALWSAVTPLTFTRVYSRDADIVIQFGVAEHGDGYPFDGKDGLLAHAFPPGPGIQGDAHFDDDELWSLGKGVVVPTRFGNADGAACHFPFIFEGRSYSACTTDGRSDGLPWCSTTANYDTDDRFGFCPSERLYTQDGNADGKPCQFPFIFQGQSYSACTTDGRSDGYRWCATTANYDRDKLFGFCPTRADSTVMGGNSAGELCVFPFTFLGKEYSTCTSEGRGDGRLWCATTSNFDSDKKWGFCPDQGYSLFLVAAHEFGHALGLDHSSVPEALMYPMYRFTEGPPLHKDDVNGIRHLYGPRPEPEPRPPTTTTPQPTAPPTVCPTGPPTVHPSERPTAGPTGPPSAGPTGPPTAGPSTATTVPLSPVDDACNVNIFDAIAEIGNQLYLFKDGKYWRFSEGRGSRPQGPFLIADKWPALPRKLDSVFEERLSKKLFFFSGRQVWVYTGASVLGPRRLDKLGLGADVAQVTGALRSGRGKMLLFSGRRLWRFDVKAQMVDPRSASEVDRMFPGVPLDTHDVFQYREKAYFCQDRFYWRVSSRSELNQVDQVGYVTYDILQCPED

Percent MMP Inhibition at 1 Hour (0.02% BAC by weight): 0%
Percent MMP Inhibition at 4 Hours (0.02% BAC by weight): 3%
Percent MMP Inhibition at 1 Hour (0.05% BAC by weight): 0%
Percent MMP Inhibition at 4 Hours (0.05% BAC by weight): 6%
Percent MMP Inhibition at 1 Hour (0.5% BAC by weight): 96.5%
Percent MMP Inhibition at 1 Hour [1]: 96%
Percent MMP Inhibition at 4 Hours (0.5% BAC by weight): 85%
Percent MMP Inhibition at 4 Hours [1]: at least 85%
Percent MMP Inhibition at 1 Hour (1.0% BAC by weight): 98.3%
Percent MMP Inhibition at 4 Hours (1.0% BAC by weight): 95%
Percent MMP Inhibition at 1 Hour (2.0% BAC by weight): 100%
Percent MMP Inhibition at 4 Hours (2.0% BAC by weight): 100%
MMP inhibition (concentration as low as 0.02% by weight, time not stated): displayed MMP inhibition
Substance: benzalkonium chloride [BAC]
